Our source for the IC50 values is ChEMBL document CHEMBL4138216, “Design, synthesis and structure-activity relationship of a focused library of β-phenylalanine derivatives as novel eEF2K inhibitors with apoptosis-inducing mechanisms in breast cancer” (Eur J Med Chem, 2018).

Some results are limits rather than exact numbers.

One assay has as its system MDA-MB-436. Description: Antiproliferative activity against human MDA-MB-436 cells assessed as decrease in cell viability after 24 hrs by MTT assay. Format: functional, cell-based. To be noted: MDA-MB-436, 24 h.
Another assay relates to MDA-MB-231. In words: cells. To be noted: Homo sapiens, MDA-MB-231, 24 h.
Assay [1] deals with T1, Eukaryotic elongation factor 2 kinase (Homo sapiens, UniProt O00418).
T1 sequence (O00418 whole entry): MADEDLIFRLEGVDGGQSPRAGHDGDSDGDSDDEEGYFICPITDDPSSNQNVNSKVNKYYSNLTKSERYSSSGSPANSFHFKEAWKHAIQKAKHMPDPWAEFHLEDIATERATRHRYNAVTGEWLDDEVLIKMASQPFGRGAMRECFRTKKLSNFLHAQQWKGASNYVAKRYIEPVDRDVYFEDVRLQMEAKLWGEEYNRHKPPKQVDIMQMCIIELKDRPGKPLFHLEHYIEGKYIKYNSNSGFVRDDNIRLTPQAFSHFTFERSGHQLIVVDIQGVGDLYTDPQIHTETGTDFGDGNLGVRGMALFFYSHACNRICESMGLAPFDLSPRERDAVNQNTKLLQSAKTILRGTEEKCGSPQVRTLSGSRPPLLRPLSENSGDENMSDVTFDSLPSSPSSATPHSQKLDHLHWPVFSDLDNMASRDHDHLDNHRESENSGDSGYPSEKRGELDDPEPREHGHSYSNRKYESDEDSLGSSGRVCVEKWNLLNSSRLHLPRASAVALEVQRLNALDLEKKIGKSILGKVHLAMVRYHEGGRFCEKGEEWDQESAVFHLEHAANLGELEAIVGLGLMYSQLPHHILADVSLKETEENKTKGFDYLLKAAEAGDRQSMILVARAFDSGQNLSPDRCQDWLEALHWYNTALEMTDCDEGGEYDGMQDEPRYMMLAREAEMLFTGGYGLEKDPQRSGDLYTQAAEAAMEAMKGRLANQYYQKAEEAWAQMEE
Description: Inhibition of eEF2K (unknown origin) using peptide MH-1 as substrate after 2 hrs by ADP-Glo luminescent assay.

Description for MDA-MB-231: Antiproliferative activity against human MDA-MB-231 cells assessed as decrease in cell viability after 24 hrs by MTT assay

As a reminder, the IC50 is the point on the concentration scale where inhibition reaches its midpoint. Take `CC(C)(C)c1ccc(C(CC(=O)O)NC(=O)c2ccc(F)cc2)cc1` (configuration not stated): the half-maximal inhibitory concentration (IC50) is greater than 100 µM in the assay with MDA-MB-436, 87.6 µM in the assay with MDA-MB-231 and 31.6 µM in assay [1].
The matching figures for `N#Cc1ccc(S(=O)(=O)NC(CC(=O)O)c2ccccc2)cc1` (configuration not stated): 59.3 µM, 48.7 µM and 18.7 µM.
On the same counts, the results for `O=C(O)CC(NC(=O)c1ccc(F)cc1)c1ccccc1` (configuration not stated) are greater than 100 µM, 84.3 µM and 35.1 µM.
The matching figures for `O=C(O)CC(NS(=O)(=O)c1ccc(C(F)(F)F)cc1)c1ccc(Cl)cc1Cl` (configuration not stated): 37.6 µM, 30.4 µM and 9.5 µM.
As for `O=C(O)CC(NS(=O)(=O)c1ccc(C(F)(F)F)cc1)c1ccccc1` (configuration not stated), the IC50 in the assay with MDA-MB-436 came to 54.7 µM; with MDA-MB-231 it was 56.1 µM; in assay [1], 19.6 µM.
On the same counts, the results for `O=C(O)CC(NS(=O)(=O)c1ccc(OC(F)(F)F)cc1)c1ccccc1` (configuration not stated) are greater than 100 µM, greater than 100 µM and greater than 50 µM.
On the same counts, the results for `O=C(O)CC(NC(=O)c1ccc(F)cc1)c1ccccc1F` (configuration not stated) are greater than 100 µM, 72.3 µM and 36.7 µM.
On the same counts, the results for `O=C(O)CC(NS(=O)(=O)c1cc(F)cc(F)c1)c1ccccc1` (configuration not stated) are 69.4 µM, 79.3 µM and 37.8 µM.
In the case of `O=C(O)CC(NC(=O)c1ccc(Cl)cc1Cl)c1ccccc1` (configuration not stated), the 50% inhibitory concentration (IC50) in the assay on MDA-MB-436 amounted to 78.2 µM; with MDA-MB-231, 67.2 µM; in assay [1] it was 29.3 µM.
On the same counts, the results for `O=C(O)CC(NC(=O)c1ccc(F)cc1)c1ccc(Cl)cc1Cl` (configuration not stated) are 55.8 µM, 58.3 µM and 17.1 µM.
The matching figures for `COc1ccccc1C(=O)NC(CC(=O)O)c1ccc(Cl)cc1Cl` (configuration not stated): greater than 100 µM, greater than 100 µM and greater than 50 µM.
The matching figures for `COc1ccccc1C(=O)NC(CC(=O)O)c1ccccc1` (configuration not stated): greater than 100 µM, greater than 100 µM and greater than 50 µM.
For the compound `O=C(O)CC(NS(=O)(=O)c1cccc([N+](=O)[O-])c1)c1ccc(Cl)cc1Cl` (configuration not stated), the 50% inhibitory concentration (IC50) in the assay on MDA-MB-436 was greater than 100 µM; in the assay with MDA-MB-231, 77.8 µM; in assay [1], 44.5 µM.
As to `O=C(O)CC(NS(=O)(=O)c1cccc([N+](=O)[O-])c1)c1ccccc1` (configuration not stated), the concentration for half-maximal inhibition (IC50) was greater than 100 µM in the assay with MDA-MB-436, greater than 100 µM in the assay with MDA-MB-231 and greater than 50 µM in assay [1].
As for `N#Cc1ccc(S(=O)(=O)NC(CC(=O)O)c2ccccc2F)cc1` (configuration not stated), the IC50 was found to be 77.7 µM with MDA-MB-436, 69.7 µM with MDA-MB-231 and 27.5 µM in assay [1].
The matching figures for `CC(C)(C)c1ccc(C(CC(=O)O)NC(=O)c2c(Cl)cccc2Cl)cc1` (configuration not stated): greater than 100 µM, greater than 100 µM and greater than 50 µM.
On the same counts, the results for `O=C(O)CC(NC(=O)c1c(Cl)cccc1Cl)c1ccccc1` (configuration not stated) are greater than 100 µM, greater than 100 µM and greater than 50 µM.
On to `O=C(O)CC(NS(=O)(=O)c1ccc(F)cc1)c1ccccc1` (configuration not stated), for which the IC50 in the assay with MDA-MB-436 is greater than 100 µM; in the assay with MDA-MB-231 it was 88.4 µM; in assay [1] it was 31.2 µM.
The matching figures for `O=C(O)CC(NC(=O)c1cccc(Br)c1)c1ccc(Cl)cc1Cl` (configuration not stated): greater than 100 µM, 82.5 µM and 28.4 µM.
Regarding `COc1ccccc1C(=O)NC(CC(=O)O)c1ccc(C(C)(C)C)cc1` (configuration not stated), the IC50 is greater than 100 µM in the assay on MDA-MB-436, greater than 100 µM in the assay with MDA-MB-231 and greater than 50 µM in assay [1].
On to `CC(C)(C)c1ccc(C(CC(=O)O)NS(=O)(=O)c2ccc(C(F)(F)F)cc2)cc1` (configuration not stated), for which the IC50 with MDA-MB-436 came out at 60.1 µM; in the assay with MDA-MB-231, 53.7 µM; in assay [1], 18.4 µM.
For `CC(C)(C)c1ccc(S(=O)(=O)NC(CC(=O)O)c2ccccc2)cc1` (configuration not stated), the 50% inhibitory concentration (IC50) was greater than 100 µM with MDA-MB-436, greater than 100 µM with MDA-MB-231 and greater than 50 µM in assay [1].
With `O=C(O)CC(NS(=O)(=O)c1cc(F)cc(F)c1)c1ccc(Cl)cc1Cl` (configuration not stated), the half-maximal inhibitory concentration (IC50) turned out to be 49.6 µM in the assay with MDA-MB-436, 35.7 µM in the assay with MDA-MB-231 and 12.5 µM in assay [1].
On the same counts, the results for `CC(C)(C)c1ccc(C(CC(=O)O)NC(=O)c2ccc(Cl)cc2Cl)cc1` (configuration not stated) are greater than 100 µM, 67.8 µM and 23.8 µM.
Take `O=C(O)CC(NS(=O)(=O)c1ccccc1)c1ccc(Cl)cc1Cl` (configuration not stated): the IC50 in the assay with MDA-MB-436 stood at 59 µM; with MDA-MB-231, 57.8 µM; in assay [1], 33.4 µM.
The matching figures for `O=C(O)CC(NS(=O)(=O)c1ccc(C(F)(F)F)cc1)c1ccccc1F` (configuration not stated): 55.6 µM, 47.1 µM and 11.6 µM.
In the case of `O=C(O)CC(NC(=O)c1cccc(Br)c1)c1ccccc1F` (configuration not stated), the IC50 in the assay with MDA-MB-436 is greater than 100 µM; with MDA-MB-231, greater than 100 µM; in assay [1] it was greater than 50 µM.
`O=C(O)CC(NS(=O)(=O)c1ccccc1Br)c1ccc(Cl)cc1Cl` (configuration not stated): the IC50 in the assay with MDA-MB-436 was greater than 100 µM; with MDA-MB-231, greater than 100 µM; in assay [1], greater than 50 µM.
For `O=C(O)CC(NC(=O)c1cccc(Br)c1)c1ccccc1` (configuration not stated), the IC50 in the assay on MDA-MB-436 is greater than 100 µM; in the assay on MDA-MB-231, greater than 100 µM; in assay [1] it was greater than 50 µM.
As for `O=C(O)CC(NC(=O)c1ccc(C(F)(F)F)cc1)c1ccccc1F` (configuration not stated), the half-inhibitory concentration (IC50) in the assay on MDA-MB-436 came to 66.8 µM; in the assay on MDA-MB-231, 59.2 µM; in assay [1], 44.5 µM.
The matching figures for `O=C(O)CC(NS(=O)(=O)c1ccccc1)c1ccccc1F` (configuration not stated): greater than 100 µM, greater than 100 µM and greater than 50 µM.
On the same counts, the results for `CC(C)(C)c1ccc(C(CC(=O)O)NC(=O)c2ccc(C(F)(F)F)cc2)cc1` (configuration not stated) are 82.3 µM, 78.8 µM and 22.6 µM.
On the same counts, the results for `O=C(O)CC(NS(=O)(=O)c1cc(F)cc(F)c1)c1ccccc1F` (configuration not stated) are 89.3 µM, 73.5 µM and 19.4 µM.
For the compound `O=C(O)CC(NS(=O)(=O)c1ccccc1Br)c1ccccc1` (configuration not stated), the IC50 is greater than 100 µM in the assay with MDA-MB-436, greater than 100 µM in the assay on MDA-MB-231 and greater than 50 µM in assay [1].
`COc1ccc(C(=O)NC(CC(=O)O)c2ccc(C(C)(C)C)cc2)cc1` (configuration not stated): the figures for the concentration for half-maximal inhibition (IC50) (in the assay on MDA-MB-436; in the assay on MDA-MB-231; in assay [1]) were greater than 100 µM, greater than 100 µM and 47.9 µM, respectively.
Regarding `O=C(O)CC(NS(=O)(=O)c1ccccc1)c1ccccc1` (configuration not stated), the figures for the IC50 (in the assay with MDA-MB-436; in the assay with MDA-MB-231; in assay [1]) were greater than 100 µM, greater than 100 µM and greater than 50 µM, respectively.
In the case of `COc1ccc(C(=O)NC(CC(=O)O)c2ccc(Cl)cc2Cl)cc1` (configuration not stated), the IC50 in the assay on MDA-MB-436 is greater than 100 µM; in the assay with MDA-MB-231 it was greater than 100 µM; in assay [1] it was 44.4 µM.
Consider `CC(C)(C)c1ccc(C(CC(=O)O)NS(=O)(=O)c2ccccc2)cc1` (configuration not stated), for which the IC50 was greater than 100 µM in the assay with MDA-MB-436, greater than 100 µM in the assay with MDA-MB-231 and greater than 50 µM in assay [1].
In the case of `CC(C)(C)c1ccc(C(CC(=O)O)NS(=O)(=O)c2ccc(OC(F)(F)F)cc2)cc1` (configuration not stated), the IC50 is greater than 100 µM in the assay with MDA-MB-436, greater than 100 µM with MDA-MB-231 and greater than 50 µM in assay [1].
For `O=C(O)CC(NC(=O)c1ccc(Cl)cc1Cl)c1ccccc1F` (configuration not stated), the values for the IC50 (in the assay on MDA-MB-436; in the assay on MDA-MB-231; in assay [1]) were greater than 100 µM, 89.3 µM and 33.7 µM, respectively.
The matching figures for `O=C(O)CC(NC(=O)c1ccc(Cl)cc1Cl)c1ccc(Cl)cc1Cl` (configuration not stated): 57.3 µM, 49.2 µM and 19.9 µM.
On the same counts, the results for `O=C(O)CC(NC(=O)c1ccc(C(F)(F)F)cc1)c1ccc(Cl)cc1Cl` (configuration not stated) are 44.1 µM, 39.1 µM and 11.7 µM.
The matching figures for `COc1ccccc1S(=O)(=O)NC(CC(=O)O)c1ccc(C(C)(C)C)cc1` (configuration not stated): greater than 100 µM, greater than 100 µM and greater than 50 µM.
As for `O=C(O)CC(NC(=O)c1c(Cl)cccc1Cl)c1ccc(Cl)cc1Cl` (configuration not stated), the IC50 with MDA-MB-436 was greater than 100 µM; with MDA-MB-231 it was greater than 100 µM; in assay [1], greater than 50 µM.
Consider `CC(C)(C)c1ccc(C(CC(=O)O)NS(=O)(=O)c2ccc(F)cc2)cc1` (configuration not stated), for which the IC50 worked out at 68.9 µM with MDA-MB-436, 66.2 µM in the assay with MDA-MB-231 and 38.5 µM in assay [1].
In the case of `CNC(=O)c1cc(Oc2ccc(NC(=O)Nc3ccc(Cl)c(C(F)(F)F)c3)cc2)ccn1` [SORAFENIB], the IC50 was found to be 4.2 µM in the assay on MDA-MB-436 and 2.8 µM in the assay with MDA-MB-231.
